# Test results reported in paper PMC4774911, “Biochemical Screening of Five Protein Kinases from Plasmodium falciparum against 14,000 Cell-Active Compounds” (PLoS ONE, 2016).
# Like-named read-outs stand apart in the source and are kept apart here.
# Legend:
# [1] = test system: HepG2 cells; conditions: Nature 2010, cited from earlier work
# [2] = test system: P. falciparum 3D7 cells; conditions: Nature 2010, cited from earlier work
# [3] = target: T1, Plasmodium falciparum protein kinase 6 (PK6) (Plasmodium falciparum, UniProt Q8IDW1); test: biochemical
# T1 construct: 6-Histidine (N); made in house
# T1 sequence (Q8IDW1 1-305): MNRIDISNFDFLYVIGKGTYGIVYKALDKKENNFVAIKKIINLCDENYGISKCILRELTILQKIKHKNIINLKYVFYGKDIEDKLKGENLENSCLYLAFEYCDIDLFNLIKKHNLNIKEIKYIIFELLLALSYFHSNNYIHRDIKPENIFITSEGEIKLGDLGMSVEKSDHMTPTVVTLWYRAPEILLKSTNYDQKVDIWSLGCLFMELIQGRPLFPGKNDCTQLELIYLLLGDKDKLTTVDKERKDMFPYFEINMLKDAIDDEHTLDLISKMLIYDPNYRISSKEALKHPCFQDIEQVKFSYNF
# [4] = test system: 3D7 PFLDH; design: method as in F.J. Gamo et al., Nature 2010; concentration or dose not given beside the values; conditions: downloaded from ChEMBL, ref F.J. Gamo et al., Nature 2010; cited from earlier work
# [5] = target: T2, Plasmodium falciparum calcium-dependent protein kinase 1 (CDPK1) (Plasmodium falciparum, UniProt P62344); test: CDPK1 Kinase-Glo ATP-consumption screen and dose-response; format: biochemical; conditions: hits below 1 uM; read-out: CDPK1 IC50
# T2 construct: 6-Histidine (N); made in house
# Procedure: Biochemical assays were performed in white 384-well plates (Nunc). Liquid transfers were done manually with 8-channel pipets. Compounds were initially tested in a single-point screen (final concentration 1 μM). […] The catalytic activity of each kinase was considered proportional to ATP consumed, as determined from measurements of residual [ATP] with the luciferase-based reagent Kinase-Glo (Promega) following incubation. Luminescence (proportional to residual [ATP]) was measured on the plate readers FLx800 (BioTek Instruments, Winooski, VT, USA) and MicroBeta^2 (PerkinElmer, Waltham, MA, USA). Incubation times were chosen to ensure near-complete ATP depletion in the absence of inhibition, thus maximizing the difference in signal between inhibited and uninhibited wells.
# 40 μM Syntide-2 was used as a substrate; BKI-1 [14] was used as a control inhibitor, while reaction mixtures lacking Syntide-2 were included as an additional negative control. Incubation time was 90 minutes. Reactions were terminated by adding excess EGTA (5 mM), which sequesters Ca^2+ and halts calcium-dependent kinase activity.
# [6] = test system: DD2; design: method as in F.J. Gamo et al., Nature 2010; conditions: downloaded from ChEMBL, ref F.J. Gamo et al., Nature 2010; cited from earlier work
# [7] = test system: DD2; design: method as in F.J. Gamo et al., Nature 2010; conditions: P. falciparum Dd2; downloaded from ChEMBL ref F.J. Gamo et al., Nature 2010; cited from earlier work
# [8] = test system: 3D7 PFLDH; design: method as in F.J. Gamo et al., Nature 2010; conditions: downloaded from ChEMBL ref F.J. Gamo et al., Nature 2010; cited from earlier work
# [9] = HepG2, downloaded from ChEMBL, ref F.J. Gamo et al.
# [10] = 3D7, downloaded from ChEMBL, ref F.J. Gamo et al.
# [11] = hits below 1 uM, read-out: PK6 IC50
# [12] = HepG2 cells, downloaded from ChEMBL ref F.J. Gamo et al.
# [13] = P. falciparum 3D7, downloaded from ChEMBL ref F.J. Gamo et al.
# T2 sequence (P62344 whole entry): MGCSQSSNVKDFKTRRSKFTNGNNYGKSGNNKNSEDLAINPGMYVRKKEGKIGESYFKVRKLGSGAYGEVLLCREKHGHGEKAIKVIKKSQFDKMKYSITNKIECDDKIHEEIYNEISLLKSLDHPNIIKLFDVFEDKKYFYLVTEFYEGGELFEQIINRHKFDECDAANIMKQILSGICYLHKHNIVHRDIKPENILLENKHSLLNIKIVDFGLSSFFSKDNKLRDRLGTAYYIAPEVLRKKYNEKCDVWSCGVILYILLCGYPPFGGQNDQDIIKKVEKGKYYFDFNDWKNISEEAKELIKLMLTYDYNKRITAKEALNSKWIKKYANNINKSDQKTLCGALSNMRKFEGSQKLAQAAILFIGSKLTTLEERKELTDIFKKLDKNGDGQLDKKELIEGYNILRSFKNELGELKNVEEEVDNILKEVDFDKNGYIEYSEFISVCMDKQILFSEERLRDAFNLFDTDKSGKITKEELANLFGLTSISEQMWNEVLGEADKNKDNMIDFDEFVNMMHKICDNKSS
Structure (SMILES),"PCT_INHIB_HEPG2 [1, 9]","PCT_IHB_3D7 [2, 10]","pXC50_3D7 [2, 10]","IC50 [3, 11]",PCT_INHIB_3D7_PFLDH [4],IC50 [5],PCT_INHB_DD2 [6],"PCT_INHIB_HEPG2 [1, 12]","PCT_IHB_3D7 [2, 13]","pXC50_3D7 [2, 13]",PCT_INHB_DD2 [7],PCT_INHIB_3D7_PFLDH [8],IC50 [3]
CNC(=O)c1ccccc1Nc1nc(Nc2cccc(CS(C)(=O)=O)c2)ncc1C.O=CO [TCMDC-133809],74%,97%,6.2733,133 nM,0%,145 nM,95%,–,–,–,–,–,–
Cl.NC(=O)c1ccccc1Nc1nc(Nc2cccc(N3CCN(CCO)CC3)c2)ncc1Cl [TCMDC-134114],93%,95%,7.402,80 nM,1%,58 nM,98%,–,–,–,–,–,–
COc1ccc(Nc2ncc(C#N)c(Nc3ccccc3C(N)=O)n2)cc1N1CCN(C)CC1.Cl [TCMDC-134117],56%,93%,6.867,61 nM,0%,89 nM,97%,–,–,–,–,–,–
CNC(=O)c1ccccc1Nc1nc(Nc2ccc(N3CCN(C)CC3)nc2)ncc1C.Cl [TCMDC-134123],75%,92%,5.942,143 nM,4%,45 nM,50%,–,–,–,–,–,–
CNC(=O)c1ccccc1Nc1nc(Nc2ccc(N3CCOCC3)cc2)ncc1Cl.Cl [TCMDC-134144],75%,97%,6.138,42 nM,0%,144 nM,97%,–,–,–,–,–,–
COc1ccc(Nc2ncc(OC)c(Nc3ccccc3C(N)=O)n2)cc1N1CCN(C)CC1.O=CO [TCMDC-134149],63%,100%,6.131,270 nM,0%,967 nM,96%,–,–,–,–,–,–
COc1ccc(Nc2ncc(Cl)c(Nc3cccnc3C(N)=O)n2)cc1N1CCN(C)CC1.Cl [TCMDC-134163],77%,95%,6.6478,86 nM,6%,559 nM,97%,–,–,–,–,–,–
CS(=O)(=O)Cc1ccc(Nc2ncc(Cl)c(Nc3cccnc3C(N)=O)n2)cc1.Cl [TCMDC-134165],54%,97%,6.062,691 nM,0%,–,97%,–,–,–,–,–,–
CS(=O)(=O)Cc1cccc(Nc2ncc(Cl)c(Nc3cccnc3C(N)=O)n2)c1.Cl [TCMDC-134166],56%,96%,6.775,74 nM,0%,–,97%,–,–,–,–,–,–
Cc1cc(Nc2ncc(Cl)c(Nc3ccccc3C(N)=O)n2)n[nH]1 [TCMDC-134170],70%,98%,6.091,129 nM,0%,76 nM,96%,–,–,–,–,–,–
CS(=O)(=O)Cc1ccc(Nc2nccc(N3CCCc4cc(NC(=O)Nc5cccc(C(F)(F)F)c5)ccc43)n2)cc1 [TCMDC-134309],46%,100%,6.829,385 nM,0%,145 nM,99%,–,–,–,–,–,–
CC(=O)Nc1ccc(Nc2ncc([N+](=O)[O-])c(Nc3ccccc3C(N)=O)n2)cc1.Cl [TCMDC-138731],42%,98%,6.437,128 nM,2%,–,97%,–,–,–,–,–,–
CC(=O)c1ccc(NC(=O)Nc2ccc(N(C)c3ccnc(Nc4cccc(CS(C)(=O)=O)c4)n3)cc2)cc1 [TCMDC-138736],86%,100%,6.9122,138 nM,0%,–,98%,–,–,–,–,–,–
CN(c1ccc2c(c1)nc(NCc1ccc(F)cc1)n2C)c1ccnc(Nc2ccc(CS(C)(=O)=O)cc2)n1.Cl [TCMDC-138747],48%,97%,6.082,844 nM,7%,–,79%,–,–,–,–,–,–
CCNC(=O)Nc1ccc(N(C)c2ccnc(Nc3ccc(CS(C)(=O)=O)cc3)n2)cc1.Cl [TCMDC-138759],0%,100%,7.051,269 nM,2%,–,99%,–,–,–,–,–,–
CN(c1ccc(NC(=O)Nc2cccc(Cl)c2)cc1)c1ccnc(N)n1.Cl [TCMDC-138782],75%,100%,6.202,402 nM,0%,–,40%,–,–,–,–,–,–
CC(C)(CNCCOc1ccc(Cl)cc1)c1nc(-c2ccnc(N)n2)c(-c2ccc(Cl)c(O)c2)[nH]1.Cl [TCMDC-141161],–,–,–,–,–,755 nM,–,45,97,6.079,19,0,–
CC(C)(CNCc1ccc(C(F)(F)F)cc1)c1nc(-c2ccnc(N)n2)c(-c2ccc(Cl)c(O)c2)[nH]1.Cl [TCMDC-141162],–,–,–,–,–,353 nM,–,32,100,6.817,37,0,–
CC(C)(CNCc1ccc(F)c(F)c1)c1nc(-c2ccnc(N)n2)c(-c2ccc(Cl)c(O)c2)[nH]1.Cl [TCMDC-141163],–,–,–,–,–,469 nM,–,41,99,6.131,79,0,–
CN(C)CCOc1ccc(-c2cc(-c3ccc(Cl)c(O)c3)c(-c3ccnc(N)n3)o2)cc1 [TCMDC-141332],–,–,–,–,–,168 nM,–,43,100,5.879,95,2,–
CN(C)CCOc1ccc(-c2cc(-c3ccnc(N)n3)c(-c3ccc(Cl)c(O)c3)o2)cc1 [TCMDC-141338],–,–,–,–,–,684 nM,–,14,100,6.01,91,5,–
CN(c1ccc(NC(=O)Nc2cc(C(F)(F)F)ccc2F)cc1)c1ccnc(NCCN2CCOCC2)n1.O=C(O)C(F)(F)F [TCMDC-141590],67%,97%,6.29,520 nM,0%,–,73%,–,–,–,–,–,–
CCN(CC)CCNc1nccc(N(C)c2ccc(NC(=O)Nc3cc(C(F)(F)F)ccc3F)cc2)n1.O=C(O)C(F)(F)F [TCMDC-141632],74%,97%,6.26,–,1%,–,25%,–,–,–,–,–,917 nM
CCN(CC)CCCNc1nccc(N(C)c2ccc(NC(=O)Nc3cc(C(F)(F)F)ccc3F)cc2)n1.O=C(O)C(F)(F)F [TCMDC-141634],96%,94%,5.978,705 nM,0%,–,19%,–,–,–,–,–,–
CN(c1ccc(NC(=O)Nc2cc(C(C)(C)C)on2)cc1)c1ccnc(NCCN2CCOCC2)n1.O=C(O)C(F)(F)F [TCMDC-141706],51%,95%,5.949,375 nM,0%,–,18%,–,–,–,–,–,–
